Test results from ChEMBL document CHEMBL1201862, “PubChem BioAssay data set” (2004).
One block for each molecule: values may come before it. Calls of active or inactive are those of the source.

Columns and labels:
[1] = molecular target: Ras and Rab interactor 1/Tyrosine-protein kinase ABL1 (Homo sapiens, UniProt P00519+Q13671); type: functional;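 further: biochemical TR-FRET dose-response test measuring inhibition of binding between Rin1 and Abl proteins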
[2] = molecular target: Peroxisome proliferator-activated receptor gamma/Nuclear receptor coactivator 1 (Homo sapiens, UniProt P37231); test: (§1) TR-FRET dose response biochemical High Throughput Screening assay for agonists of the steroid receptor coactivator 1 (SRC-1) recruitment by the peroxisome proliferator-activated receptor gamma (PPAR gamma): non-selective agonists. [Related pubchem assays (depositor defined):AID1300, AID1808, AID504735, AID631]; type: protein assay
[3] = molecular target: Peroxisome proliferator-activated receptor gamma/Nuclear receptor coactivator 3 (Homo sapiens, UniProt P37231); test: as §1, with “3 (SRC-3)” for “1 (SRC-1)”, “assays: 1301 (Confirmation screen.), 1048 (Primary screen.)]” for “assays (depositor defined):AID1300, AID1808, AID504735, AID631]”; type: functional
Sequence of Peroxisome proliferator-activated receptor gamma/Nuclear receptor coactivator 3 (P37231 whole entry): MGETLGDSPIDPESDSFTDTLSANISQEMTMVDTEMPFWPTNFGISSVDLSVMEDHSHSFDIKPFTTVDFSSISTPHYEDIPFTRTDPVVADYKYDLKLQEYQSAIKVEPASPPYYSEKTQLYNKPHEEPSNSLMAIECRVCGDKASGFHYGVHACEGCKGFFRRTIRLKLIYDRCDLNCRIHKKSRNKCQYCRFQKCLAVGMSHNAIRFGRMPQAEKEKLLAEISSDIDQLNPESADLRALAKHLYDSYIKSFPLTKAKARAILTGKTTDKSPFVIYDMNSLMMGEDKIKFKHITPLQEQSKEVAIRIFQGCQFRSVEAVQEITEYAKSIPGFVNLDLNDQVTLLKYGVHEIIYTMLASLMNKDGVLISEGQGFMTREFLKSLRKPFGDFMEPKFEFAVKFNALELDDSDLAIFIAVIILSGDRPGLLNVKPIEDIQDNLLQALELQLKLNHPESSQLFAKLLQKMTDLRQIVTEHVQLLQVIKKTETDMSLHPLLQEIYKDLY
Sequence of Peroxisome proliferator-activated receptor gamma/Nuclear receptor coactivator 3 (Q9Y6Q9 whole entry, further chain): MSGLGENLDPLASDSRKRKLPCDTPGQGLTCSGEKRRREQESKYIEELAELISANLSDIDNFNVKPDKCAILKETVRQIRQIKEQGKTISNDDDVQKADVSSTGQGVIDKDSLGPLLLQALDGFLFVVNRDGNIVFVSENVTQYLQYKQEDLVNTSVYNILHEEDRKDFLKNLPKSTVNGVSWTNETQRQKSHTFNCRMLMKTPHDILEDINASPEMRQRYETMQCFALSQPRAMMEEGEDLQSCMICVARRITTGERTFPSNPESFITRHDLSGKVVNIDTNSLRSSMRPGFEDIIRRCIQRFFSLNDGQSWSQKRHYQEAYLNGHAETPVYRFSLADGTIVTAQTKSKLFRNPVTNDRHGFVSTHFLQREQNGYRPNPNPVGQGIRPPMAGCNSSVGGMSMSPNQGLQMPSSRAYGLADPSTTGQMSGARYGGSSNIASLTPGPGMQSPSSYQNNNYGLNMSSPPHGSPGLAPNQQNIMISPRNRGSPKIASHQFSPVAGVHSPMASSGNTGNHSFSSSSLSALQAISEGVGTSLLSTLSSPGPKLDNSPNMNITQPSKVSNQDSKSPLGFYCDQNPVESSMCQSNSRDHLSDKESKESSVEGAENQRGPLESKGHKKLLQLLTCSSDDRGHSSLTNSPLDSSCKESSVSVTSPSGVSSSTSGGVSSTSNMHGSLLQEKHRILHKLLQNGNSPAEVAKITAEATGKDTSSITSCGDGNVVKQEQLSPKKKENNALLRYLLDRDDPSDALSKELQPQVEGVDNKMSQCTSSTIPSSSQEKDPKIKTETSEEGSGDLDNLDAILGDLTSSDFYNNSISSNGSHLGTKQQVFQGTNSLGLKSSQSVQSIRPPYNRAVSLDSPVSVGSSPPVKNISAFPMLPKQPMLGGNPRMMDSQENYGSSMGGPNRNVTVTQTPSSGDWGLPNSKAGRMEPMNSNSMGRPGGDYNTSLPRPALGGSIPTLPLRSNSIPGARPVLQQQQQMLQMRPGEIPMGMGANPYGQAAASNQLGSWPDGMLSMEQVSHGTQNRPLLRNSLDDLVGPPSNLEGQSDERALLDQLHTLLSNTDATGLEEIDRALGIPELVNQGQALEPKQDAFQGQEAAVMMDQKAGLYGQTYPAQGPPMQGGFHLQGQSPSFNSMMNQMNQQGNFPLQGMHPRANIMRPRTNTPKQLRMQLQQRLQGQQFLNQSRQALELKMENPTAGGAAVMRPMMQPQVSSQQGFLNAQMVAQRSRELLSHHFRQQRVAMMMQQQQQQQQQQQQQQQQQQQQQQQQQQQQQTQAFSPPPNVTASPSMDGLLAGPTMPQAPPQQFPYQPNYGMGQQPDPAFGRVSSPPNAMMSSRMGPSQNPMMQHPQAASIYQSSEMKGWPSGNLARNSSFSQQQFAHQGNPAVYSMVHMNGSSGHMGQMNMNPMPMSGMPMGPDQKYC

[4] = molecular target: Peroxisome proliferator-activated receptor gamma/Nuclear receptor coactivator 2 (Homo sapiens, UniProt P37231); test: TR-FRET dose response biochemical High Throughput Screening assay for agonists of the steroid receptor coactivator 2 (SRC-2) recruitment by the peroxisome proliferator-activated receptor gamma (PPAR gamma): non-selective agonists. [Related pubchem assays: 1297, 1032 ]; type: functional
[5] = molecular target: Cytochrome P450 2D6 (Homo sapiens, UniProt P10635);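 further: CYP2D6 member of a cytochrome P450 panel assay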
Sequence of Cytochrome P450 2D6 (P10635 whole entry): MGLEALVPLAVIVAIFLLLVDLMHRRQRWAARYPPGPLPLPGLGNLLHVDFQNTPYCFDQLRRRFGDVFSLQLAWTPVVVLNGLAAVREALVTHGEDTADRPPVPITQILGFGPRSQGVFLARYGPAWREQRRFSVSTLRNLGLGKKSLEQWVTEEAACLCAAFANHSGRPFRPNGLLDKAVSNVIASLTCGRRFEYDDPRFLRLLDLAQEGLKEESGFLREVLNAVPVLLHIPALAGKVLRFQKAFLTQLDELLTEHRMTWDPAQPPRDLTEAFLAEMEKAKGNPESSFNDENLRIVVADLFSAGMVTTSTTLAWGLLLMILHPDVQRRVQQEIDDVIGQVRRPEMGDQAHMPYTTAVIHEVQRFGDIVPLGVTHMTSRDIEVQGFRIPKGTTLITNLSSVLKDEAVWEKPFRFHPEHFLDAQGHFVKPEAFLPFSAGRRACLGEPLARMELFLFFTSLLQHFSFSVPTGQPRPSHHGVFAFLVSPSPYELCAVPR

[6] = molecular target: Cytochrome P450 3A4 (Homo sapiens, UniProt P08684);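 further: CYP3A4 tested as one member of a cytochrome P450 panel screen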
Sequence of Cytochrome P450 3A4 (P08684 whole entry): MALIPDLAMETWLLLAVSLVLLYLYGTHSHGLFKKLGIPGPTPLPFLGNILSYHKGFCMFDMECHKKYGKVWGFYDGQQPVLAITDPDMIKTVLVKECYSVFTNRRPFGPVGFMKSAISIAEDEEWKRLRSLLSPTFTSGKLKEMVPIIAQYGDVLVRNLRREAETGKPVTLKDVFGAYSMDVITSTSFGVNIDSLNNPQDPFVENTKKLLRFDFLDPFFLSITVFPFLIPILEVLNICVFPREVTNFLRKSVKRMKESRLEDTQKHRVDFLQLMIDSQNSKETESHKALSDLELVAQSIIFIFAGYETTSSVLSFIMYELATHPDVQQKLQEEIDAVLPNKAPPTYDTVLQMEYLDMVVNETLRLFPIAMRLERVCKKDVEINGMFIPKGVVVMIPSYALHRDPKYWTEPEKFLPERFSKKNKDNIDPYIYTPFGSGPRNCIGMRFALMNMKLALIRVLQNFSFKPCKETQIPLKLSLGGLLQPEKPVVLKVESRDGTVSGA

[7] = HPDE-C7 pancreatic duct cell viability loss – fluorescence, HTS (AID 430); type: functional, cell-based; settings: Homo sapiens
[8] = viability loss of HPDE-C7K cells – cell-based, fluorescence, HTS, primary screen (AID 431); type: functional; settings: Homo sapiens
[9] = molecular target: Cytochrome P450 2C19 (Homo sapiens, UniProt P33261); test: Cytochrome panel assay with activity outcomes. Panel member name: p450-cyp2c19 Compounds with AC50 equal or less than 10 uM are considered active; type: functional
[10] = molecular target: T1, Sentrin-specific protease 6 (Homo sapiens, UniProt Q9GZR1); type: functional;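 further: Luminescence-based dose-response confirmatory assay of SENP6 inhibition, following up an ultra-high-throughput screen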
T1 sequence (Q9GZR1 whole entry): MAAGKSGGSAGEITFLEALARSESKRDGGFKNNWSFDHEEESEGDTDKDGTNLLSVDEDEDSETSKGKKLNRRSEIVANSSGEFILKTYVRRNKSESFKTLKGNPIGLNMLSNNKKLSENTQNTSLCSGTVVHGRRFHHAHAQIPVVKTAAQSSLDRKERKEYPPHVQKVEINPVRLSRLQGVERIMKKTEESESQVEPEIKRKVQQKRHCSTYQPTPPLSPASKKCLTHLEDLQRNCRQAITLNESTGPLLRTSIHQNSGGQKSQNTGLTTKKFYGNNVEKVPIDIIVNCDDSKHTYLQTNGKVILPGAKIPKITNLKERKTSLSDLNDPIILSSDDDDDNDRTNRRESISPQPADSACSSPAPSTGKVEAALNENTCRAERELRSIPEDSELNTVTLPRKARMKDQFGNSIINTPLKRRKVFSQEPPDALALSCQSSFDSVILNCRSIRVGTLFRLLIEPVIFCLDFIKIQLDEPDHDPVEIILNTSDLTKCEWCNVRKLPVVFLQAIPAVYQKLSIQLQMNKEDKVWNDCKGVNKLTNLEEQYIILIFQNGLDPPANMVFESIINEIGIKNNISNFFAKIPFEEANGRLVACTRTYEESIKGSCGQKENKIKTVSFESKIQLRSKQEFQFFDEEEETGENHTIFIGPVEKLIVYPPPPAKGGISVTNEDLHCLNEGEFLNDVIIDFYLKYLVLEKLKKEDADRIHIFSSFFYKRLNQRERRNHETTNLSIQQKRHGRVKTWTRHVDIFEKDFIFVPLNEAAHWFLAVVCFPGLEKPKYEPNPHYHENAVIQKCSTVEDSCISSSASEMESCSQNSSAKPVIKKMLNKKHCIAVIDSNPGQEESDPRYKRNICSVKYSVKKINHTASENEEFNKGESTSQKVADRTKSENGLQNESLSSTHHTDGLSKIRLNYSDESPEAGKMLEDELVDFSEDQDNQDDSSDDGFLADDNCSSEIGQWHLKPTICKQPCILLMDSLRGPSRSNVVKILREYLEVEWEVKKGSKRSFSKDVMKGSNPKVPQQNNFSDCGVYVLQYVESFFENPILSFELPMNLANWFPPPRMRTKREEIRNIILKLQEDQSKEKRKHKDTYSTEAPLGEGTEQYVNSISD

[11] = molecular target: T2, Caspase-3 (Homo sapiens, UniProt P42574); type: functional;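 further: Dose-response selectivity test against caspase-3 for candidate inhibitors of sentrin-specific proteases (SENPs)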
T2 sequence (P42574 whole entry): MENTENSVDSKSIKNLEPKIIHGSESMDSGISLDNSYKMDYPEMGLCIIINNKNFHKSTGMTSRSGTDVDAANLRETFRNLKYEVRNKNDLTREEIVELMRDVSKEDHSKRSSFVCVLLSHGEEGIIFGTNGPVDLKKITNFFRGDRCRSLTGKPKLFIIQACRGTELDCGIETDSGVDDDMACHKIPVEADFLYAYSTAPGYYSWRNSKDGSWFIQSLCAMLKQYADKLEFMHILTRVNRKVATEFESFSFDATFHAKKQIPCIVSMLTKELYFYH

[12] = molecular target: T3, Sentrin-specific protease 7 (Homo sapiens, UniProt Q9BQF6); type: functional;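 further: Luminescence-based dose-response confirmation of ultra-high-throughput screening hits, measuring inhibition of SENP7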
T3 sequence (Q9BQF6 whole entry): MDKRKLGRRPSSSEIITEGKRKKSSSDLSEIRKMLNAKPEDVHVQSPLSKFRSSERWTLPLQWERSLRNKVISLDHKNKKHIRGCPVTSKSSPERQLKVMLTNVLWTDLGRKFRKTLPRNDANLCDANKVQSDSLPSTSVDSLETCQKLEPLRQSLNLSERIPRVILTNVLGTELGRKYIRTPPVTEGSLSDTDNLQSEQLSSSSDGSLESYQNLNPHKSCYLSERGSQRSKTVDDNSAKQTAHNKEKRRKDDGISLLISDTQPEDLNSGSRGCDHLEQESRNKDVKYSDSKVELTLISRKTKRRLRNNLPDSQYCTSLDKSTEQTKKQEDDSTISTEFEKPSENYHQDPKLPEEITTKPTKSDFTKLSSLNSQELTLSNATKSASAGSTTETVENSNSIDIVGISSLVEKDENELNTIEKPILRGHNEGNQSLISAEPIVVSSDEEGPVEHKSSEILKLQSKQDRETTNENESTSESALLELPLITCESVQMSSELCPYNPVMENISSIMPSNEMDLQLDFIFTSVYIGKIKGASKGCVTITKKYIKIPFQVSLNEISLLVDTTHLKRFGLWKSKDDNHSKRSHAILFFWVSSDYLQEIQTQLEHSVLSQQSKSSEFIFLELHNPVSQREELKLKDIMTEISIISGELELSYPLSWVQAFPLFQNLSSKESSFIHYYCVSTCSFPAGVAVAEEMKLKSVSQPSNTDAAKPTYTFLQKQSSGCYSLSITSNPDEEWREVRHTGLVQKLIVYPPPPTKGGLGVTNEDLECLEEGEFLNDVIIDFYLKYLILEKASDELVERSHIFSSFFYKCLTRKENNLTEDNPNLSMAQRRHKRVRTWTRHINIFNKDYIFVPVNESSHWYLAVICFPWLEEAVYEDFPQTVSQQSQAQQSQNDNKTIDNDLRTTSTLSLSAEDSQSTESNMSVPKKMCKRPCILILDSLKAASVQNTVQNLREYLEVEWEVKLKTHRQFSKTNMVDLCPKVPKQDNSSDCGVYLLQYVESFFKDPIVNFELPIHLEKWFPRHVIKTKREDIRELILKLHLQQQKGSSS

[13] = molecular target: T4, Sentrin-specific protease 8 (Homo sapiens, UniProt Q96LD8); type: functional;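 further: luminescence read-out of SENP8 inhibition, dose-response confirmation following an ultra-high-throughput screen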
T4 sequence (Q96LD8 whole entry): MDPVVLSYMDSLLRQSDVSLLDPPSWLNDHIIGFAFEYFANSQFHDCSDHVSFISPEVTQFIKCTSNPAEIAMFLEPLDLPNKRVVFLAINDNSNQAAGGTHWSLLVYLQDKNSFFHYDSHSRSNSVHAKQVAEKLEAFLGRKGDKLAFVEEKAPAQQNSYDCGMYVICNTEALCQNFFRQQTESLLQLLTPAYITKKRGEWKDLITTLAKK

[14] = test system: SN12K1; test: cells; type: functional; settings: Homo sapiens
[15] = test system: P388; test: cells; type: functional; settings: Mus musculus;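 further: compound exposure lasted 48 hours before growth was measured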
[16] = reduction of Shn3 3'UTR-driven luciferase in osteoblasts – cell-based, Clone20 osteoblasts, firefly luciferase, cherry-picked, dose response (AID 624132); type: functional;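 further: firefly luciferase luminescence from reporter carrying the Shn3 3'UTR in osteoblasts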
[17] = molecular target: T5, COUP transcription factor 2 (Homo sapiens, UniProt P24468); test: Luminescence-based cell-based high throughput dose response assay to identify inhibitors of COUP-TFII (NR2F2).; type: functional;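 further: HEK293 cells transiently cotransfected with COUP-TFII expression vector and reporter; luciferase reporter luminescence driven by COUP-TFII from the pX2-168 reporter plasmid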
T5 sequence (P24468 whole entry): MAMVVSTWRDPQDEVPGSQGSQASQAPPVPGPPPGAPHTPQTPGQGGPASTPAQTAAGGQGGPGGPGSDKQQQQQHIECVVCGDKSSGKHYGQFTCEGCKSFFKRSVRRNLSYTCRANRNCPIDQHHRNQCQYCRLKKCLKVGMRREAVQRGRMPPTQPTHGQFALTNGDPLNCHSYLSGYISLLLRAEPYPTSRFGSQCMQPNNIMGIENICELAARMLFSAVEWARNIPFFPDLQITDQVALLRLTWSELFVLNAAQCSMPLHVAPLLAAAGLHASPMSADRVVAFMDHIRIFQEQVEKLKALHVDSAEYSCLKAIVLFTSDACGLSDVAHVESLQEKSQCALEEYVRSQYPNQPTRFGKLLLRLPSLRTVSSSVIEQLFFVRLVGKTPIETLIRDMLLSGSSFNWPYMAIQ

[18] = test system: HEK293; test: inhibition of NOD1-driven NF-kB reporter – cell-based, luminescence, uHTS, primary screen (AID 1578); type: functional; settings: Homo sapiens
[19] = non-specific 3'UTR reporter inhibition in Clone20-Shn3RL – cell-based, Renilla luciferase, cherry-picked, counter-screen for Shn3 inhibitor project, dose response (AID 624133); type: functional
[20] = test system: HEK293; test: NOD2 signaling inhibitors in MDP-stimulated cells, cell-based, uHTS, luminescence (AID 2001); type: functional; settings: Homo sapiens
[21] = test system: HEK293; test: cells; type: functional, cell-based; settings: Homo sapiens
[22] = test system: HEK293; test: cells; type: functional, cell-based; settings: Homo sapiens; remark: listed apart in the source
[23] = loss of viability in HepG2 cells – cell-based, CellTiter-Glo, cherry-picked, cytotoxicity control for Shn3 inhibitor project, dose response (AID 624134); type: functional

Sequence of Ras and Rab interactor 1/Tyrosine-protein kinase ABL1 (P00519 whole entry): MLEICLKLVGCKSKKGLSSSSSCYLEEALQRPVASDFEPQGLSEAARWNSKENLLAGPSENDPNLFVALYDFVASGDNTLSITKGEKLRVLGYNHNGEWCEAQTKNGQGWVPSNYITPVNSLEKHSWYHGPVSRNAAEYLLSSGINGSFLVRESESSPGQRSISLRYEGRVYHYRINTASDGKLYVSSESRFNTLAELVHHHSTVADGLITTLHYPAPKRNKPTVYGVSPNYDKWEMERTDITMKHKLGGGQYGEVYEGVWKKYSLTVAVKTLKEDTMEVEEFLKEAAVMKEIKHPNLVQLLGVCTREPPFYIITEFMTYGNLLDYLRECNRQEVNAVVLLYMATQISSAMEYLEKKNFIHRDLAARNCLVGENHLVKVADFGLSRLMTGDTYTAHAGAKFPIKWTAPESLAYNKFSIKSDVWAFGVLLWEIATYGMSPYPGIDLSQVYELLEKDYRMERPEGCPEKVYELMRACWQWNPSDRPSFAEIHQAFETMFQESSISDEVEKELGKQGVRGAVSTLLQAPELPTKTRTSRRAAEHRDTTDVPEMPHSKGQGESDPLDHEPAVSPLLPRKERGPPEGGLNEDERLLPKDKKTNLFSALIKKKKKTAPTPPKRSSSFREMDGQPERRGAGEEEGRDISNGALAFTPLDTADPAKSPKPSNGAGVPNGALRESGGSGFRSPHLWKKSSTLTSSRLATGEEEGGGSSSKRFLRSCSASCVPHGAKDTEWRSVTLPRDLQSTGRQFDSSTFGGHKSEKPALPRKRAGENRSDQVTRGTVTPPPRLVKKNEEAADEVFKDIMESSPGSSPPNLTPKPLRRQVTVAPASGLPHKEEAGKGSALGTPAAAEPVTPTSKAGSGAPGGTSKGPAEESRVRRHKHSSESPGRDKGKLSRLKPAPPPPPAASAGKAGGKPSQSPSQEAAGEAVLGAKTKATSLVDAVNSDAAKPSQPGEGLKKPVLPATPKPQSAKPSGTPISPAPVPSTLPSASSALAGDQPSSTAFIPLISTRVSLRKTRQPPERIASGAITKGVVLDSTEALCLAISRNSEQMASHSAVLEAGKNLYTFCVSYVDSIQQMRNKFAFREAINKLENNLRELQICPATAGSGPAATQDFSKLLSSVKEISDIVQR
Sequence of Ras and Rab interactor 1/Tyrosine-protein kinase ABL1 (Q13671 whole entry): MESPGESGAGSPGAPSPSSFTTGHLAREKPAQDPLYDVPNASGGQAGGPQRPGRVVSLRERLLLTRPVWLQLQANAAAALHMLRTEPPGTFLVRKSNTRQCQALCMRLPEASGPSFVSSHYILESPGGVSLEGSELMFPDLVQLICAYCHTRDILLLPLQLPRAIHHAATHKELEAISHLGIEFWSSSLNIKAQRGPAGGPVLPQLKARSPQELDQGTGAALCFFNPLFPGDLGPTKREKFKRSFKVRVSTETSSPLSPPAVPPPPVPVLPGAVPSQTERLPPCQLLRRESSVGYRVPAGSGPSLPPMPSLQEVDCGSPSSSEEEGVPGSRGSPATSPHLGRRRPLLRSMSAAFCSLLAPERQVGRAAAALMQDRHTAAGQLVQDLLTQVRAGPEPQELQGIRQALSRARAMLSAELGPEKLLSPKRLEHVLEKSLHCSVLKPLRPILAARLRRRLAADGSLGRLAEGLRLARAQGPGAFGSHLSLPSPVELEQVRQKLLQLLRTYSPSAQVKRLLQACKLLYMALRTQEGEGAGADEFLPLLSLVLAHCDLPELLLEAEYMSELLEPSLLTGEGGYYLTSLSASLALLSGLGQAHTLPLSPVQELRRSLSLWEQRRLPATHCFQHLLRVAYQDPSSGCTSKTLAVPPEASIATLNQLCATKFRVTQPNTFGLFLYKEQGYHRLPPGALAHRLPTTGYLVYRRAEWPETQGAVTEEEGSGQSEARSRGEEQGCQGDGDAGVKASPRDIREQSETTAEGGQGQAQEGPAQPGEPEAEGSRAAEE

IC50 [1]: 46.8 µM (inactive)
Structure (SMILES): CC[C@]12c3[nH]c4ccc(Cl)cc4c3CCN1C(=O)[C@@H](CC(=O)NCCCN(C)C)C[C@@H]2C(=O)N1CCN(C(=O)c2ccco2)CC1

EC50 [2]: 24.3 µM (inactive)
EC50 [3]: > 79.4 µM (not active)
EC50 [4]: 14.2 µM (not active)
Structure (SMILES): CCOC(=O)c1sc(NC(=O)c2ccco2)nc1-c1ccccc1

AC50 [5]: 2 µM (inconclusive)
AC50 [6]: inconclusive
Structure (SMILES): CO/N=C(/CNC(=O)c1ccc(Cl)cc1Cl)c1ccc(Cl)cc1

AC50 [9]: inconclusive
AC50 [6]: inconclusive
Structure (SMILES): CCc1nc2cc(CC(=O)O)ccc2o1

EC50 [2]: > 79.4 µM (inactive)
EC50 [3]: > 79.4 µM (not active)
EC50 [4]: 28.6 µM (not active)
Structure (SMILES): Clc1cccc(-c2ccc(/C=N/c3ccc(N4CCOCC4)cc3)o2)c1

Continued, molecule first:

Structure (SMILES): Cc1nnc(SCc2nc3ccccc3[nH]2)s1
EC50 [7]: > 20 µM (not active)
IC50 [1]: 15.2 µM (inactive)
EC50 [8]: > 20 µM (not active)

Structure (SMILES): C[N+](=N[N-]c1cccc([N+](=O)[O-])c1)c1ccccc1
IC50 [10]: 33.7 µM (active)
IC50 [11]: 29.7 µM (active)
IC50 [12]: 6.72 µM (active)
IC50 [13]: 36 µM (active)

Structure (SMILES): CSCCC(c1nnnn1C1CCCC1)N1CCC(n2c(O)nc3ccccc32)CC1 (centres undefined)
IC50 [1]: 26.1 µM (inactive)

Structure (SMILES): Nc1cc(S(=O)(=O)O)cc2cc(S(=O)(=O)O)c(/N=N/c3ccc(-c4ccc(/N=N/c5c(S(=O)(=O)O)cc6cc(S(=O)(=O)O)cc(N)c6c5O)cc4)cc3)c(O)c12
GI50 [14]: > 100 µM (inactive)
GI50 [15]: > 100 µM (inactive)

Structure (SMILES): CCN(CC)C(=O)c1oc2ccc(S(=O)(=O)N3CC(C)CC(C)C3)cc2c1C (centres undefined)
AC50 [16]: 1.02 µM (active)
IC50 [17]: 8.24 µM (active)
EC50 [18]: 2.78 µM (active)
AC50 [19]: 6.58 µM (active)
IC50 [20]: 5.18 µM (active)
IC50 [21]: > 20 µM (inactive)
IC50 [22]: 4.79 µM (active)
AC50 [23]: 3.55 µM (active)
